Test results as given in patent US9427482B2, “Agents for clearing biomolecules from circulation” (KONINKLIJKE PHILIPS N.V., priority 2010, dated 2016).

System: LS174T xenografts
Experiment: Biodistribution, blood kinetics and excretion of CC49-TCO-18 pretargeted ^177Lu-tetrazine 15 (Example 12)
Type: in vivo, mice
Method: Groups of 4 mice bearing LS174T xenografts (70-100 mm^3) were injected either with directly labeled ^177Lu-DOTA-CC49 (100 μg/100 μl, ca. 0.5 MBq per mouse) or with CC49-TCO-18 pretargeted ^177Lu-tetrazine 15 (100 μg/100 μl CC49-TCO-18 followed by two 160 μg/100 μl doses of galactose-MSA-tetrazine 12 at 30 and 48 hours and by 8.52 μg/80 μl ^177Lu-tetrazine 15, 0.8-1.2 MBq per mouse, containing 100 μg gentisic acid). One group of mice injected with ^177Lu-DOTA-CC49 and one injected with pretargeted ^177Lu-tetrazine were used to evaluate the early blood distribution of the two tracers by withdrawing blood samples from the vena saphena at selected time points (2, 30, and 60 min for ^177Lu-DOTA-CC49 and 2, 5, 10, 20, 30, and 45 min for pretargeted ^177Lu-tetrazine) (FIG. 15). These two groups of mice were then sacrificed 3 h and 1 h after the injection of ^177Lu-DOTA-CC49 and ^177Lu-tetrazine, respectively. All other groups of mice were sacrificed at various time points up to 7 days post tracer injection. After sacrifice, blood was withdrawn by heart puncture and selected organs and tissues were harvested and blotted dry. The blood samples and tissues were weighed, added with 1 mL PBS and the radioactivity was counted in a gamma counter along with standards to determine the % ID/g and % ID (Tables 7-8). Two additional groups of tumor bearing mice were used for excretion profiles (FIG. 16). The mice injected with ^177Lu-DOTA-CC49 were housed in filtered caging units and at various time points the bedding was counted in a gamma counter along with standards. The other group of mice was injected with ^177Lu-tetrazine at higher specific activity (ca. 12 MBq/8.52 μg tetrazine per mouse) and whole body clearance was monitored by measuring the animals in a dose calibrator at various time points.

Structure (SMILES): O=C([O-])CN1CCN(CC(=O)[O-])CCN(CC(=O)NCCOCCOCCOCCOCCOCCOCCOCCOCCOCCOCCOCCNC(=O)CCCC(=O)Nc2ccc(-c3nnc(-c4ccccn4)nn3)nc2)CCN(CC(=O)[O-])CC1.[177Lu+3] [^177Lu-tetrazine]
- biodistribution bladder (1 hours): 2.21 ± 1.15 % ID/g
- biodistribution blood (1 hours): 0.42 ± 0.20 % ID/g
- biodistribution bone (1 hours): 1.08 ± 1.34 % ID/g
- biodistribution brain (1 hours): 0.03 ± 0.03 % ID/g
- biodistribution heart (1 hours): 0.16 ± 0.05 % ID/g
- biodistribution kidney (1 hours): 2.38 ± 0.55 % ID/g
- biodistribution lg. intestine (1 hours): 0.38 ± 0.11 % ID
- biodistribution liver (1 hours): 0.29 ± 0.08 % ID/g
- biodistribution lung (1 hours): 0.54 ± 0.15 % ID/g
- biodistribution muscle (1 hours): 0.23 ± 0.21 % ID/g
- biodistribution ovaries (1 hours): 0.57 ± 0.37 % ID/g
- biodistribution sm. intestine (1 hours): 0.16 ± 0.03 % ID
- biodistribution spleen (1 hours): 0.17 ± 0.04 % ID/g
- biodistribution stomach (1 hours): 0.10 ± 0.10 % ID
- biodistribution tumor (1 hours): 4.71 ± 1.13 % ID/g
- biodistribution uterus (1 hours): 2.80 ± 1.64 % ID/g
- biodistribution bladder (3 hours): 0.85 ± 0.64 % ID/g
- biodistribution blood (3 hours): 0.03 ± 0.00 % ID/g
- biodistribution bone (3 hours): 0.17 ± 0.19 % ID/g
- biodistribution brain (3 hours): 0.00 ± 0.00 % ID/g
- biodistribution heart (3 hours): 0.04 ± 0.00 % ID/g
- biodistribution kidney (3 hours): 1.58 ± 0.14 % ID/g
- biodistribution lg. intestine (3 hours): 0.15 ± 0.04 % ID
- biodistribution liver (3 hours): 0.18 ± 0.02 % ID/g
- biodistribution lung (3 hours): 0.21 ± 0.03 % ID/g
- biodistribution muscle (3 hours): 0.05 ± 0.03 % ID/g
- biodistribution ovaries (3 hours): 0.21 ± 0.19 % ID/g
- biodistribution sm. intestine (3 hours): 0.22 ± 0.07 % ID
- biodistribution spleen (3 hours): 0.09 ± 0.01 % ID/g
- biodistribution stomach (3 hours): 0.02 ± 0.01 % ID
- biodistribution tumor (3 hours): 5.38 ± 0.48 % ID/g
- biodistribution uterus (3 hours): 0.35 ± 0.42 % ID/g
- injected activity excreted in the urine (3 hours post injection): over 95%
- tumor-to-blood ratio (3 hours post injection): ~200
- biodistribution bladder (6 hours): 0.20 ± 0.08 % ID/g
- biodistribution blood (6 hours): 0.02 ± 0.00 % ID/g
- biodistribution bone (6 hours): 0.03 ± 0.00 % ID/g
- biodistribution brain (6 hours): 0.00 ± 0.00 % ID/g
- biodistribution heart (6 hours): 0.03 ± 0.01 % ID/g
- biodistribution kidney (6 hours): 1.09 ± 0.18 % ID/g
- biodistribution lg. intestine (6 hours): 0.05 ± 0.01 % ID
- biodistribution liver (6 hours): 0.15 ± 0.01 % ID/g
- biodistribution lung (6 hours): 0.11 ± 0.02 % ID/g
- biodistribution muscle (6 hours): 0.02 ± 0.00 % ID/g
- biodistribution ovaries (6 hours): 0.09 ± 0.02 % ID/g
- biodistribution sm. intestine (6 hours): 0.38 ± 0.26 % ID
- biodistribution spleen (6 hours): 0.07 ± 0.01 % ID/g
- biodistribution stomach (6 hours): 0.01 ± 0.01 % ID
- biodistribution tumor (6 hours): 4.53 ± 1.69 % ID/g
- biodistribution uterus (6 hours): 0.10 ± 0.04 % ID/g
- biodistribution bladder (1 day): 0.20 ± 0.06 % ID/g
- biodistribution blood (1 day): 0.01 ± 0.00 % ID/g
- biodistribution bone (1 day): 0.03 ± 0.01 % ID/g
- biodistribution brain (1 day): 0.00 ± 0.00 % ID/g
- biodistribution heart (1 day): 0.03 ± 0.00 % ID/g
- biodistribution kidney (1 day): 1.01 ± 0.13 % ID/g
- biodistribution lg. intestine (1 day): 0.06 ± 0.06 % ID
- biodistribution liver (1 day): 0.13 ± 0.02 % ID/g
- biodistribution lung (1 day): 0.10 ± 0.01 % ID/g
- biodistribution muscle (1 day): 0.02 ± 0.00 % ID/g
- biodistribution ovaries (1 day): 0.08 ± 0.03 % ID/g
- biodistribution sm. intestine (1 day): 0.09 ± 0.05 % ID
- biodistribution spleen (1 day): 0.07 ± 0.01 % ID/g
- biodistribution stomach (1 day): 0.04 ± 0.05 % ID
- biodistribution tumor (1 day): 3.83 ± 0.95 % ID/g
- biodistribution uterus (1 day): 0.09 ± 0.02 % ID/g
- biodistribution bladder (2 days): 0.12 ± 0.07 % ID/g
- biodistribution blood (2 days): 0.01 ± 0.00 % ID/g
- biodistribution bone (2 days): 0.02 ± 0.00 % ID/g
- biodistribution brain (2 days): 0.00 ± 0.00 % ID/g
- biodistribution heart (2 days): 0.03 ± 0.01 % ID/g
- biodistribution kidney (2 days): 0.49 ± 0.07 % ID/g
- biodistribution lg. intestine (2 days): 0.07 ± 0.08 % ID
- biodistribution liver (2 days): 0.11 ± 0.02 % ID/g
- biodistribution lung (2 days): 0.08 ± 0.03 % ID/g
- biodistribution muscle (2 days): 0.02 ± 0.01 % ID/g
- biodistribution ovaries (2 days): 0.10 ± 0.06 % ID/g
- biodistribution sm. intestine (2 days): 0.06 ± 0.06 % ID
- biodistribution spleen (2 days): 0.07 ± 0.01 % ID/g
- biodistribution stomach (2 days): 0.01 ± 0.01 % ID
- biodistribution tumor (2 days): 3.15 ± 1.32 % ID/g
- biodistribution uterus (2 days): 0.12 ± 0.09 % ID/g
- biodistribution bladder (4 days): 0.13 ± 0.04 % ID/g
- biodistribution blood (4 days): 0.00 ± 0.00 % ID/g
- biodistribution bone (4 days): 0.02 ± 0.01 % ID/g
- biodistribution brain (4 days): 0.00 ± 0.00 % ID/g
- biodistribution heart (4 days): 0.02 ± 0.00 % ID/g
- biodistribution kidney (4 days): 0.34 ± 0.02 % ID/g
- biodistribution lg. intestine (4 days): 0.03 ± 0.02 % ID
- biodistribution liver (4 days): 0.14 ± 0.02 % ID/g
- biodistribution lung (4 days): 0.06 ± 0.01 % ID/g
- biodistribution muscle (4 days): 0.01 ± 0.00 % ID/g
- biodistribution ovaries (4 days): 0.09 ± 0.02 % ID/g
- biodistribution sm. intestine (4 days): 0.04 ± 0.04 % ID
- biodistribution spleen (4 days): 0.07 ± 0.01 % ID/g
- biodistribution stomach (4 days): 0.01 ± 0.00 % ID
- biodistribution tumor (4 days): 2.06 ± 0.84 % ID/g
- biodistribution uterus (4 days): 0.10 ± 0.07 % ID/g
- biodistribution bladder (7 days): 0.15 ± 0.02 % ID/g
- biodistribution blood (7 days): 0.00 ± 0.00 % ID/g
- biodistribution bone (7 days): 0.01 ± 0.00 % ID/g
- biodistribution brain (7 days): 0.00 ± 0.00 % ID/g
- biodistribution heart (7 days): 0.01 ± 0.00 % ID/g
- biodistribution kidney (7 days): 0.19 ± 0.04 % ID/g
- biodistribution lg. intestine (7 days): 0.02 ± 0.01 % ID
- biodistribution liver (7 days): 0.13 ± 0.03 % ID/g
- biodistribution lung (7 days): 0.04 ± 0.01 % ID/g
- biodistribution muscle (7 days): 0.01 ± 0.00 % ID/g
- biodistribution ovaries (7 days): 0.08 ± 0.04 % ID/g
- biodistribution sm. intestine (7 days): 0.07 ± 0.04 % ID
- biodistribution spleen (7 days): 0.08 ± 0.01 % ID/g
- biodistribution stomach (7 days): 0.01 ± 0.00 % ID
- biodistribution tumor (7 days): 1.02 ± 0.36 % ID/g
- biodistribution uterus (7 days): 0.21 ± 0.16 % ID/g
- T1/2, elimination from blood (CC49-TCO pretargeted mice): 11.2 min
- tumor-to-blood ratio (by the end of the experiment (7 days)): over 500
